Data on 16 compounds can be found in patent US5387602A, “1.5-diphenyl-3-(N-hydroxycarbamoyloxyalkyl)pyrazoles” (Ortho Pharmaceutical Corporation, priority 1993, dated 1995).

The structures appear in SMILES notation. Read-outs that look alike come from different tables or passages of the source.

The subject of experiment [1] is 5-LO (LTB4) in dog whole blood. Put plainly: Procedure IV: ex vivo eicosanoid synthesis in dog whole blood after oral dosing, 5-LO. Particulars: Canis lupus familiaris, read-out: % INHIB/HOURS 5-LO (Proc. IV); for inhibition at 1 mg/kg: 1 MPK; for inhibition at 5 mg/kg: 5 MPK. The protocol:
(§1) Ex Vivo eicosanoid synthesis in dog whole blood. Adult beagle or mongrel dogs (10-15 kg) of either sex were fasted overnight prior to the initiation of each experiment. The forelimb was clipped and swabbed with an alcohol prep (70% isopropanol). Blood was drawn by venipuncture into syringes containing lithium heparin (Starstead, Newton N.C.) immediately prior to administration of compound or vehicle and then at various intervals following dosing. The test compound was administered orally as a suspension in 0.5% methocel. At various times after dosing, blood samples were drawn and placed on an electric rocker platform to assure complete and continuous mixing. White blood cell (wbc) counts were performed using a Sysmex hematology analyzer. This was done in an effort to normalize the number of leukocytes to be stimulated with calcium ionophore. A 1.0 mL aliquot of whole blood was challenged with 50 μL of a 2.6×10^-5 M solution of calcium ionophore A23187 (Calbiochem, La Jolla, Calif.) prepared in DMSO and diluted in HBSS. After a 15 minute incubation at 37° C., the reaction was stopped by placing the samples in an ice bath (4° C.) for 5 minutes and then centrifuged at 11,000×g for 5 minutes to separate the plasma fraction from blood cells. The plasma fraction was removed, diluted in an appropriate buffer, and analyzed for the presence of LTB4 and prostaglandin F2a or TxB2 by standard RIA techniques.
(§2) In the following tables, the superscripts indicate the number of experiments and, unless otherwise stated, the dose at which % inhibition is reported is 3 MPK.

Experiment [2] deals with CO (prostaglandin F2a or TxB2) in dog whole blood. Nature of the experiment: Procedure IV: ex vivo eicosanoid synthesis in dog whole blood after oral dosing, CO. Conditions: Canis lupus familiaris, read-out: % INHIB/HOURS CO (Proc. IV); for inhibition at 1 mg/kg: 1 MPK; for inhibition at 5 mg/kg: 5 MPK. The protocol:
as §1, §2

Turning to `COc1ccc(-n2nc(COC(=O)N(O)C(C)C)c(Br)c2-c2ccc(Cl)cc2)cc1` [1-F], the inhibition at 7.5 mg/kg in experiment [1] (7.5 MPK, 6 hours) was 38%; in experiment [2] (7.5 MPK, 6 hours), 82%.

Take `COc1ccc(-n2nc(COC(=O)N(C)O)cc2-c2ccc(C)cc2)cc1` [1-K]: the inhibition at 3 mg/kg in experiment [1] (3 MPK, 2 hours) turned out to be 21%; in experiment [2] (3 MPK, 2 hours), 95%.

As for `COc1ccc(-n2nc(COC(=O)N(O)C(C)C)cc2-c2ccc(C)cc2)cc1` [1-L], the inhibition at 1 mg/kg in experiment [1] (2 hours) was 22%; in experiment [2] (2 hours) it was 68%.

As to `COc1ccc(-n2nc(COC(=O)NO)c(Cl)c2-c2ccc(C)cc2)cc1` [1-P], the inhibition at 5 mg/kg in experiment [1] (2 hours) was found to be 27%; in experiment [2] (2 hours) it was 72%.

With `COc1ccc(-n2nc(COC(=O)N(O)C(C)C)c(Cl)c2-c2ccc(C)cc2)cc1` [1-R], the inhibition at 1 mg/kg in experiment [1] (2 hours) was determined as 6%; in experiment [2] (2 hours) it was 7%.

On to `COc1ccc(-n2nc(CCOC(=O)N(C)O)cc2-c2ccc(Cl)cc2)cc1` [2-A], for which the inhibition at 2.5 mg/kg is 0% in experiment [1] (2.5 MPK, 6 hours) and 32% in experiment [2] (2.5 MPK, 6 hours).

As to `COc1ccc(-n2nc(CCOC(=O)N(O)C(C)C)cc2-c2ccc(Cl)cc2)cc1` [2-B], the values for the inhibition at 5 mg/kg in experiment [1] (2 hours) and in experiment [2] (2 hours) were 0% and 33%, respectively.

With `COc1ccc(-n2nc(CCOC(=O)N(O)C(C)C)c(Cl)c2-c2ccc(Cl)cc2)cc1` [2-D], the results for the inhibition at 5 mg/kg in experiment [1] (2 hours) and in experiment [2] (2 hours) were 32% and 41%, respectively.

In the case of `COc1ccc(-n2nc(CCOC(=O)N(C)O)c(Br)c2-c2ccc(Cl)cc2)cc1` [2-E], the inhibition at 5 mg/kg in experiment [1] (6 hours) turned out to be 57%; in experiment [2] (6 hours), 62%.

Regarding `COc1ccc(-n2nc(CCOC(=O)N(O)C(C)C)c(Br)c2-c2ccc(Cl)cc2)cc1` [2-F], the inhibition at 5 mg/kg amounted to 11% in experiment [1] (24 hours) and 42% in experiment [2] (24 hours).

On to `COc1ccc(-n2nc(CCOC(=O)N(C)O)c(Cl)c2-c2ccc(C)cc2)cc1` [2-I], for which the inhibition at 5 mg/kg in experiment [1] (6 hours) and in experiment [2] (6 hours) was 0% in each case.

In the case of `COc1ccc(-n2nc(CCOC(=O)N(O)C(C)C)c(Cl)c2-c2ccc(C)cc2)cc1` [2-J], the inhibition at 5 mg/kg in experiment [1] (4 hours) is 26%; in experiment [2] (4 hours) it was 73%.

Take `COc1ccc(-n2nc(CCCOC(=O)N(C)O)cc2-c2ccc(Cl)cc2)cc1` [3-B]: the figures for the inhibition at 5 mg/kg in experiment [1] (6 hours) and in experiment [2] (6 hours) were 11% and 94%, respectively.

Consider `COc1ccc(-n2nc(CCCOC(=O)N(C)O)c(Cl)c2-c2ccc(Cl)cc2)cc1` [3-D], for which the inhibition at 5 mg/kg was determined as 1% in experiment [1] (2 hours) and 93% in experiment [2] (2 hours).

As for `COc1ccc(-n2nc(CCCOC(=O)N(O)C(C)C)c(Cl)c2-c2ccc(Cl)cc2)cc1` [3-E], the inhibition at 5 mg/kg in experiment [1] (24 hours) came out at 22%; in experiment [2] (2 hours), 76%.

For `COc1ccc(-n2nc(CCCOC(=O)N(C)O)c(Br)c2-c2ccc(Cl)cc2)cc1` [3-F], the inhibition at 5 mg/kg is 8% in experiment [1] (2 hours) and 45% in experiment [2] (2 hours).
